Source: PubChem BioAssay AID1745844 (Carcinogenic Potency Database (CPDB), 2022)
Calls of active or inactive are those of the source. No rule for the calls is given here.

System: rodent lifetime carcinogenesis bioassay, tumor incidence TD50
Assay: chronic cancer bioassays in animals – CPDB, compiled studies (AID 1745844)

FC(F)Cl
carcinogen call (mouse, strain Swiss, females, inhaled, site: any site (literature study), lesion: malignant tumor, dosed 78 weeks, study length 104 weeks): negative (inactive)
carcinogen call (mouse, strain Swiss, females, inhaled, site: any site (literature study), lesion: several types, types named in the paper, dosed 78 weeks, study length 104 weeks): negative (inactive)
carcinogen call (mouse, strain Swiss, females, inhaled, site: lung, lesion: adenoma, dosed 78 weeks, study length 104 weeks): negative (inactive)
TD50 (mouse, strain Swiss, males, inhaled, site: any site (literature study), lesion: malignant tumor, dosed 78 weeks, study length 104 weeks): 98300 mg/kg/day (inactive)
carcinogen call (mouse, strain Swiss, males, inhaled, site: any site (literature study), lesion: several types, types named in the paper, dosed 78 weeks, study length 104 weeks): negative (inactive)
carcinogen call (mouse, strain Swiss, males, inhaled, site: lung, lesion: adenoma, dosed 78 weeks, study length 104 weeks): negative (inactive)
TD50 (rat, strain Sprague-Dawley, females, inhaled, site: any site (literature study), lesion: malignant tumor, dosed 104 weeks, study length 104 weeks): 20100 mg/kg/day (inactive)
TD50 (rat, strain Sprague-Dawley, females, inhaled, site: any site (literature study), lesion: several types, types named in the paper, dosed 104 weeks, study length 104 weeks): 26000 mg/kg/day (inactive)
carcinogen call (rat, strain Sprague-Dawley, females, inhaled, site: liver, lesion: angiosarcoma, dosed 104 weeks, study length 104 weeks): negative (inactive)
carcinogen call (rat, strain Sprague-Dawley, males, inhaled, site: any site (literature study), lesion: malignant tumor, dosed 104 weeks, study length 104 weeks): negative (inactive)
TD50 (rat, strain Sprague-Dawley, males, inhaled, site: any site (literature study), lesion: several types, types named in the paper, dosed 104 weeks, study length 104 weeks): 6540 mg/kg/day (inactive)
carcinogen call (rat, strain Sprague-Dawley, males, inhaled, site: liver, lesion: angiosarcoma, dosed 104 weeks, study length 104 weeks): negative (inactive)

CC(=O)Oc1ccccc1C(=O)O
carcinogen call (mouse, strain C57BL/6, females, in feed, site: liver, lesion: one or several types, types not named, dosed 77 weeks, study length 77 weeks): negative (inactive)
carcinogen call (mouse, strain C57BL/6, males, in feed, site: liver, lesion: one or several types, types not named, dosed 77 weeks, study length 77 weeks): negative (inactive)
carcinogen call (rat, strain Fischer 344, males, in feed, site: colon, lesion: one or several types, types not named, dosed 56 weeks, study length 56 weeks): negative (inactive)
TD50 (rat, strain Fischer 344, males, in feed, site: urinary bladder, lesion: papilloma, dosed 68 weeks, study length 68 weeks): 1670 mg/kg/day
carcinogen call (rat, strain Wistar, males, in feed, site: liver, lesion: one or several types, types not named, dosed 52 weeks, study length 52 weeks): negative (inactive)
carcinogen call (rat, strain albino, both sexes, by gavage, site: forestomach, lesion: one or several types, types not named, dosed 78 weeks, study length 78 weeks): negative (inactive)
carcinogen call (rat, strain albino, both sexes, by gavage, site: stomach, glandular, lesion: one or several types, types not named, dosed 78 weeks, study length 78 weeks): negative (inactive)

CC(=O)OCC(=O)[C@@]12N=C(C)O[C@@H]1C[C@H]1[C@@H]3CCC4=CC(=O)C=C[C@]4(C)[C@H]3[C@@H](O)C[C@@]12C
TD50 (rat, strain Charles River CD (Sprague-Dawley), females, in feed, site: head, lesion: osteosarcoma, dosed 104 weeks, study length 104 weeks): 66.8 mg/kg/day
carcinogen call (rat, strain Charles River CD (Sprague-Dawley), males, in feed, site: bone, lesion: several types, types named in the paper, dosed 104 weeks, study length 104 weeks): positive
carcinogen call (rat, strain Charles River CD (Sprague-Dawley), males, in feed, site: head, lesion: osteosarcoma, dosed 104 weeks, study length 104 weeks): positive

CN(C)C(=O)Cl
TD50 (hamster, strain Syrian Golden, males, inhaled, site: nasal cavity, lesion: squamous-cell carcinoma, dosed 112 weeks, study length 112 weeks): 0.625 mg/kg/day
TD50 (mouse, strain Ha/ICR, females, i.p., site: abdomen, lesion: sarcoma, dosed 64 weeks, study length 64 weeks): 5.37 mg/kg/day
TD50 (mouse, strain Ha/ICR, females, i.p., site: abdomen, lesion: several types, types named in the paper, dosed 64 weeks, study length 64 weeks): 4.59 mg/kg/day
TD50 (mouse, strain Ha/ICR, females, i.p., site: lung, lesion: papillary tumor, dosed 64 weeks, study length 64 weeks): 6.65 mg/kg/day

CC(C)[N+](=O)[O-]
carcinogen call (rat, strain Sprague-Dawley, females, inhaled, site: any site (literature study), lesion: benign tumor, dosed 52 weeks, study length 52 weeks): negative (inactive)
carcinogen call (rat, strain Sprague-Dawley, females, inhaled, site: any site (literature study), lesion: benign tumor, dosed 52 weeks, study length 95 weeks): negative (inactive)
carcinogen call (rat, strain Sprague-Dawley, females, inhaled, site: any site (literature study), lesion: benign tumor, dosed 95 weeks, study length 95 weeks): negative (inactive)
carcinogen call (rat, strain Sprague-Dawley, females, inhaled, site: any site (literature study), lesion: malignant tumor, dosed 52 weeks, study length 52 weeks): negative (inactive)
carcinogen call (rat, strain Sprague-Dawley, females, inhaled, site: any site (literature study), lesion: malignant tumor, dosed 52 weeks, study length 95 weeks): negative (inactive)
carcinogen call (rat, strain Sprague-Dawley, females, inhaled, site: any site (literature study), lesion: malignant tumor, dosed 95 weeks, study length 95 weeks): negative (inactive)
carcinogen call (rat, strain Sprague-Dawley, females, inhaled, site: liver, lesion: one or several types, types not named, dosed 52 weeks, study length 52 weeks): negative (inactive)
carcinogen call (rat, strain Sprague-Dawley, females, inhaled, site: liver, lesion: one or several types, types not named, dosed 52 weeks, study length 95 weeks): negative (inactive)
TD50 (rat, strain Sprague-Dawley, females, inhaled, site: liver, lesion: one or several types, types not named, dosed 95 weeks, study length 95 weeks): 293 mg/kg/day (inactive)
TD50 (rat, strain Sprague-Dawley, males, inhaled, site: any site (literature study), lesion: benign tumor, dosed 52 weeks, study length 52 weeks): 9.06 mg/kg/day (inactive)
TD50 (rat, strain Sprague-Dawley, males, inhaled, site: any site (literature study), lesion: benign tumor, dosed 52 weeks, study length 95 weeks): 7.78 mg/kg/day (inactive)
carcinogen call (rat, strain Sprague-Dawley, males, inhaled, site: any site (literature study), lesion: benign tumor, dosed 95 weeks, study length 95 weeks): negative (inactive)
carcinogen call (rat, strain Sprague-Dawley, males, inhaled, site: any site (literature study), lesion: malignant tumor, dosed 52 weeks, study length 52 weeks): negative (inactive)
TD50 (rat, strain Sprague-Dawley, males, inhaled, site: any site (literature study), lesion: malignant tumor, dosed 52 weeks, study length 95 weeks): 23.6 mg/kg/day (inactive)
carcinogen call (rat, strain Sprague-Dawley, males, inhaled, site: any site (literature study), lesion: malignant tumor, dosed 95 weeks, study length 95 weeks): negative (inactive)
carcinogen call (rat, strain Sprague-Dawley, males, inhaled, site: liver, lesion: angioma, dosed 52 weeks, study length 95 weeks): negative (inactive)
carcinogen call (rat, strain Sprague-Dawley, males, inhaled, site: liver, lesion: angioma, dosed 95 weeks, study length 95 weeks): negative (inactive)
carcinogen call (rat, strain Sprague-Dawley, males, inhaled, site: liver, lesion: one or several types, types not named, dosed 52 weeks, study length 52 weeks): negative (inactive)

CCN(CC)CCOc1ccc(C(O)(Cc2ccc(OC)cc2)c2ccccc2)cc1 (centres undefined)
carcinogen call (rat, strain Not specified, females, by gavage, site: mammary tissue, wider than the gland, lesion: one or several types, types not named, dosed 52 weeks, study length 52 weeks): negative (inactive)

Nc1ccc(O)c([N+](=O)[O-])c1
carcinogen call (mouse, strain B6C3F1, females, in feed, site: any site (literature study), lesion: several types, types named in the paper, dosed 103 weeks, study length 105 weeks): negative (inactive)
TD50 (mouse, strain B6C3F1, females, in feed, site: liver, lesion: hepatocellular adenoma + hepatocellular carcinoma + neoplastic nodule, dosed 103 weeks, study length 105 weeks): 3650 mg/kg/day
carcinogen call (mouse, strain B6C3F1, males, in feed, site: any site (literature study), lesion: several types, types named in the paper, dosed 103 weeks, study length 105 weeks): negative (inactive)
TD50 (mouse, strain B6C3F1, males, in feed, site: liver, lesion: hepatocellular adenoma + hepatocellular carcinoma + neoplastic nodule, dosed 103 weeks, study length 105 weeks): 2250 mg/kg/day
TD50 (rat, strain Fischer 344, females, in feed, site: urinary bladder, lesion: transitional-cell carcinoma, dosed 103 weeks, study length 105 weeks): 1880 mg/kg/day
TD50 (rat, strain Fischer 344, males, in feed, site: any site (literature study), lesion: several types, types named in the paper, dosed 103 weeks, study length 105 weeks): 270 mg/kg/day
TD50 (rat, strain Fischer 344, males, in feed, site: urinary bladder, lesion: transitional-cell carcinoma, dosed 103 weeks, study length 105 weeks): 309 mg/kg/day

C[C@]12C=CC(=O)C=C1CC[C@@H]1[C@@H]2[C@@H](O)C[C@@]2(C)[C@H]1CC[C@]2(O)C(=O)COC(=O)CCCc1ccc(N(CCCl)CCCl)cc1
TD50 (rat, strain Sprague-Dawley, females, by gavage, site: any site (literature study), lesion: benign tumor, dosed 78 weeks, study length 104 weeks): 14 mg/kg/day (inactive)
TD50 (rat, strain Sprague-Dawley, females, by gavage, site: any site (literature study), lesion: malignant tumor, dosed 78 weeks, study length 104 weeks): 21.6 mg/kg/day (inactive)
TD50 (rat, strain Sprague-Dawley, females, by gavage, site: external auditory canal, lesion: squamous-cell carcinoma, dosed 78 weeks, study length 104 weeks): 19.2 mg/kg/day

Nc1nnc(-c2ccc([N+](=O)[O-])o2)o1
TD50 (rat, strain Sprague-Dawley, females, in feed, site: any site (literature study), lesion: several types, types named in the paper, dosed 46 weeks, study length 66 weeks): 2.74 mg/kg/day
TD50 (rat, strain Sprague-Dawley, females, in feed, site: forestomach, lesion: squamous-cell papilloma, dosed 46 weeks, study length 66 weeks): 37 mg/kg/day
TD50 (rat, strain Sprague-Dawley, females, in feed, site: kidney/pelvis, lesion: transitional-cell carcinoma, dosed 46 weeks, study length 66 weeks): 45.2 mg/kg/day
TD50 (rat, strain Sprague-Dawley, females, in feed, site: lung, lesion: alveolar-cell carcinoma, dosed 46 weeks, study length 66 weeks): 242 mg/kg/day
TD50 (rat, strain Sprague-Dawley, females, in feed, site: mammary gland, lesion: adenocarcinoma, dosed 46 weeks, study length 66 weeks): 7.98 mg/kg/day
TD50 (rat, strain Sprague-Dawley, females, in feed, site: mammary gland, lesion: several types, types named in the paper, dosed 46 weeks, study length 66 weeks): 3.67 mg/kg/day

OO
TD50 (mouse, strain C57BL/6J, females, in drinking water, site: duodenum, lesion: adenoma, dosed 100 weeks, study length 100 weeks): 2010 mg/kg/day
TD50 (mouse, strain C57BL/6J, females, in drinking water, site: duodenum, lesion: carcinoma, dosed 100 weeks, study length 100 weeks): 7540 mg/kg/day
TD50 (mouse, strain C57BL/6J, females, in drinking water, site: duodenum, lesion: several types, types named in the paper, dosed 100 weeks, study length 100 weeks): 7830 mg/kg/day
TD50 (mouse, strain C57BL/6J, males, in drinking water, site: duodenum, lesion: adenoma, dosed 100 weeks, study length 100 weeks): 7350 mg/kg/day
TD50 (mouse, strain C57BL/6J, males, in drinking water, site: duodenum, lesion: carcinoma, dosed 100 weeks, study length 100 weeks): 15000 mg/kg/day
TD50 (mouse, strain C57BL/6J, males, in drinking water, site: duodenum, lesion: several types, types named in the paper, dosed 100 weeks, study length 100 weeks): 4800 mg/kg/day

COc1ccc2nc(S(=O)Cc3ncc(C)c(OC)c3C)[nH]c2c1 (centres undefined)
TD50 (rat, strain Sprague-Dawley, females, by gavage, site: gastric mucosa, lesion: carcinoid tumor, malignant, dosed 104 weeks, study length 104 weeks): 63 mg/kg/day
TD50 (rat, strain Sprague-Dawley, males, by gavage, site: gastric mucosa, lesion: carcinoid tumor, malignant, dosed 104 weeks, study length 104 weeks): 1120 mg/kg/day
